From patent US5877210A, “Phosphotyrosine phosphatase inhibitors or phosphotyrosine kinase activators for controlling cellular proliferation” (priority 1995, dated 1999)
pIC50: −log10 of the molar value. Entries after “also recorded” stand apart in the source; their conditions may differ.

Key:
[1] = system: HCT116(VP)35; experiment: In vitro cytotoxicity, XTT assay
Experimental: (§1) The vanadate compound pV(phen) was tested for in vitro cytotoxicity in a panel of human tumor cell lines. The cell lines used were a human colon carcinoma cell line, HCT116, and two drug-resistant sublines. The HCT116(VM46) subline was selected for resistance to VM-26 and expresses the multidrug resistant (MDR) phenotype including resistance to lipophilic anticancer drugs such as paclitaxel, VP-16, VM-26, doxorubicin, and vinblastine. This cell line overexpresses P-glycoprotein, a cell surface drug efflux pump, which limits accumulation of anticancer drugs such as the ones mentioned above. […] The compound pV(phen) was also evaluated in the ovarian carcinoma cell line A2780 and a paclitaxel resistant subline A2780-Tax22.
(§2) In the cytotoxicity assays, cells were plated and 24 hr later drugs were added and serially diluted. After 72 hr of continuous drug exposure, the tetrazolium dye XTT was added. A dehydrogenase enzyme in live cells reduces the XTT to a form that absorbs light at 450 nm which can be quantitated spectrophotometrically. The greater absorbance, the greater is the number of live cells. The results are expressed as a IC50 which is a drug concentration required to inhibit cell proliferation (i.e., absorbance at 450 nm) to 50% of that of untreated control cells.

[2] = system: HCT116(VM)46; experiment: In vitro cytotoxicity, XTT assay
Experimental: as §1, §2

[3] = system: A2780/Tax22; experiment: In vitro cytotoxicity, XTT assay
Experimental: as §1, §2

[4] = system: L1210 murine T cell leukemia cells; experiment: Apoptosis: DNA fragmentation on agarose gel; type: cell-based; settings: pV(phen), FIG. 18
Experimental: For these experiments, cell samples (2×10^6 cells) were centrifuged at 200× g, the media removed by aspiration and the cell pellets stored at -70° C. until processing. Cell pellets were resuspended in 300 μl digestion buffer (100 mM NaCl, 10 mM Tris-HCl, pH 8.0, 25 mM EDTA, 0.5% SDS, 0.1 mg/ml protease K) and incubated for 12 hours at 50° C. DNase-free ribonuclease (5 μg) in 200 μl TE buffer (10 mM Tris-HCl, pH 7.5, 1 mM EDTA) was added to each sample followed by incubation for 2 hours at 37° C. DNA was then extracted once with phenol:chloroform, once with chloroform and then precipitated with 0.5 volumes of ammonium acetate and 2 volumes of ethanol at -70° C. for 12 hours. The precipitated DNA was resuspended in 200 μl TE buffer and quantitated by absorbance at 260 nanometers. The DNA (15 μg) was applied to a 1.3% agarose gel in TBE buffer (89 mM Tris base, 89 mM boric acid, 2 mM EDTA) resolved at 20 mA constant current and the DNA was visualized by staining with ethidium bromide. Fragmented DNA due to apoptosis appeared as a ladder of bands on the gel.
L1210 murine T cell leukemia cells were treated with the indicated concentrations of pV(phen) for the indicated times and the DNA was examined by gel electrophoresis as in Example 3.

[5] = system: i.p. M109 murine lung carcinoma; experiment: In vivo antitumor test, M109; settings: for Max. % T/C: qd 1→5, ip
Experimental: The compound pV(phen) was tested for its antitumor activity in vivo. A summary of the antitumor test results is shown below in Table 13. In the i.p. M109 murine lung carcinoma model (Experiment No. 330; Table 13), consecutive daily i.p. injections each day from day 1 to 5 were effective in achieving an active result. […] A maximum T/C of 143%, consistent with the first result, was obtained.

[6] = system: murine B cell lymphoma A20 cells; experiment: Anti-phosphotyrosine immunoblot; type: cell-based; settings: 16 hr
[7] = system: CEM; experiment: Anti-phosphotyrosine immunoblot; type: cell-based, human; settings: 16 hr
[8] = system: PHA-induced T cell blasts; experiment: Ca2+ signaling in PHA T cell blasts; type: cell-based, human
Experimental: Ca^2+ responses were measured using indo-1 (Molecular Probes, Eugene, Oreg.) and a model 50 HH/2150 flow cytometer (Ortho, Westwood, Mass.) as previously described (P. S. Rabinovitch et al., J. Immunol. 137:952-961 (1986)). The histograms were analyzed by programs (Cicero, Cytomation Inc., Ft. Collins, Colo.) that calculate the mean indo-1 violet/blue fluorescence ratio versus time. There are 100 data points on the X (time) axis for all flow cytometric data.
In the experiments shown in FIG. 25, human PHA-induced T cell blasts were treated overnight with the indicated concentrations of BMLOV. In Panel A, the baseline level of intracellular free Ca^2+ ([Ca^2+ ]i) was established for 1 min, and then the cells were treated with biotinylated anti-CD3 mAb (G19-4). After 5 min avidin was added (gap in the trace) to cross-link the antibody. In Panel B, assays were performed as in Panel A, but in the presence of 5 mM EGTA. […] In the experiments shown in FIG. 26, cells were treated 16 h with BMLOV and then stimulated with anti-CD3 mAb G19-4 for 5 min. Cells were then washed and resuspended in fresh media at equal concentrations of BMLOV at 37° C. Cells were then harvested and lysed at times following the initiation of CD3 stimulation as indicated. Antibody binding in immunoblots was detected by ECL.

[9] = system: calf intestinal alkaline phosphatase; experiment: Alkaline phosphatase inhibition; type: biochemical
[10] = system: HL-60 cells; experiment: Anti-phosphotyrosine immunoblot; type: cell-based, human

SMILES | pIC50 ([1]; hct116(vp35) cells, 72 h) | fold resistance relative to parental cell line ([1]; vs HCT116, 4320 min) [fold] | pIC50 ([2]; hct116(vm46) cells, 72 h) | fold resistance relative to parental cell line ([2]; vs HCT116, 4320 min) [fold] | pIC50 ([3]; a2780/tax22 cells, 72 h) | fold resistance relative to parental cell line ([3]; vs A2780, 4320 min) [fold] | induction of apoptosis (DNA fragmentation) [4] | Max. % T/C ([5]; Expt. 330, 12 mg/kg/inj) [%] | Max. % T/C ([5]; Expt. 333, 12 mg/kg/inj (MTD reached)) [%] | cumulative MTD ([5]; last M109 experiment) [mg/kg] | induction of tyrosine phosphorylation [6] | induction of tyrosine phosphorylation [7] | Ca2+ signals from crosslinking CD3 alone or with CD2 and CD4 ([8]; 25-50 μM BMLOV) | basal calcium levels ([8]; 50 to 100 μM BMLOV, fifteen hours) | effect on CD28 Ca2+ signals ([8]; PHA T cell blasts) | Ca2+ signaling in T cells ([8]; anti-CD3 cross-linking, BMLOV overnight (25 μM elsewhere in the source)) | inhibition of calf intestinal alkaline phosphatase ([9]; 500 μM BMLOV) | pIC50 ([9]; Table 1, p-nitrophenyl phosphate substrate) | pIC50 ([9]; Table 8) | tyrosine phosphorylation response [10]
[Na+].[O]=[V-]12([O][O]1)[O][O]2.c1cnc2c(c1)ccc1cccnc12 [pV(phen), sodium (1,10-phenanthroline) oxodiperoxovanadium (V)] | 5.14 | 0.9 | 5.70 | 0.2 | 5.12 | 0.9 | fragmentation of DNA demonstrates apoptosis | 144 | 143 | 60 | – | – | – | – | – | – | – | – | – | –
Cc1occc(=O)c1[O-].Cc1occc(=O)c1[O-].[O]=[V+2] [BMLOV, Bis(maltolato)oxovanadium (IV)] | – | – | – | – | – | – | – | – | – | – | highly responsive | only low levels of tyrosine phosphorylation | prolong Ca^2+ signals | markedly enhance basal calcium levels | marked inhibition | detectably stimulated Ca^2+ signaling; also recorded: increased and prolonged | less than 10% | < 3.30 | < 3.30 | showed a tyrosine phosphorylation response; also recorded: strong tyrosine phosphorylation was observed
